Source: ChEMBL document CHEMBL4371085, “Novel M4 positive allosteric modulators derived from questioning the role and impact of a presumed intramolecular hydrogen-bonding motif in β-amino carboxamide-harboring ligands” (Bioorg Med Chem Lett, 2019)

system: Cytochrome P450; test: Inhibition of CYP450 (unknown origin); assay type: ADME, protein assay; details: human

SMILES	inhibition (INH)	INH
COc1ccc(CNC(=O)c2cc3c(C)c(C)nnc3s2)cc1F	Active	
CCc1c(C(=O)NCc2ccc(OC)c(F)c2)sc2nnc(C)c(C)c12	Active	
COc1ccc(CNC(=O)c2sc3nnc(C)c(C)c3c2C2CC2)cc1F	Active	
CSc1ccc(CNC(=O)c2sc3nc(C)cc(C)c3c2C)cc1	Active	
COc1ccc(CNC(=O)c2cc3c(C)cc(C)nc3s2)cc1	Active	
Cc1cc(C)c2c(C)c(C(=O)NCc3ccc4c(c3)CCO4)sc2n1	Active	
Cc1cc(C)c2c(C)c(C(=O)NCc3ccc(OC(F)(F)F)cc3)sc2n1	Active	
Cc1cc(C)c2c(C)c(C(=O)NCc3ccc(S(C)(=O)=O)cc3)sc2n1	Active	
Cc1nnc2sc(C(=O)NC3COC3)c(C3CC3)c2c1C	Active	
Cc1cc(C)c2c(C)c(C(=O)NCc3ccc4c(c3)OCCO4)sc2n1	Active	
COc1ccc(CNC(=O)c2sc3nnc(C)c(C)c3c2C)cc1F	Active	
COc1ccc(CNC(=O)c2sc3nc(C)cc(C)c3c2C)cc1	Active	
COc1ccc(CNc2n[nH]c3c2sc2nc(C)cc(C)c23)cc1		< 5 µM
COc1ccc(CNc2nn(C)c3c2sc2nnc(C)c(C)c23)cc1		> 30 µM
CCc1c(C(=O)NCc2ccc(S(C)(=O)=O)cc2)sc2nc(C)cc(C)c12	Active	
Cc1nnc2sc3c(NCc4ccc(S(C)(=O)=O)c(F)c4)nn(C)c3c2c1C		> 30 µM

target: T1, Muscarinic acetylcholine receptor M4 (Homo sapiens) (UniProt P08173); test: Positive allosteric modulation of Gqi5-fused human M4 AChR assessed as increase in acetylcholine-induced calcium mobilization relative to acetylcholine alone; assay type: functional; details: not given
T1 sequence (whole entry): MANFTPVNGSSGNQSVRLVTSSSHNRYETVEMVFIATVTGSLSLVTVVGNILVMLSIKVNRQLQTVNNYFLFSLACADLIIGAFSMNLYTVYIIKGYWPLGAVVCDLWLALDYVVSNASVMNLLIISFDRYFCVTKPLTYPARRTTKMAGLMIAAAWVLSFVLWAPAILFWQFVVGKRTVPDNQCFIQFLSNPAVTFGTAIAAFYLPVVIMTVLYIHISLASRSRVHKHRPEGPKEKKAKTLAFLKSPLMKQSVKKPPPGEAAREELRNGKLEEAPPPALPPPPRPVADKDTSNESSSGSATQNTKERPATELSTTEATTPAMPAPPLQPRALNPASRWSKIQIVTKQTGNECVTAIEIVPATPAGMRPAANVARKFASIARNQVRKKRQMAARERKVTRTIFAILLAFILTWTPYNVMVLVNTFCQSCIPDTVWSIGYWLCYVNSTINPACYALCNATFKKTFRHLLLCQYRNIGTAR

SMILES	Emax
COc1ccc(CNc2nn(C)c3c2sc2nc(C)c(Cl)c(C)c23)cc1	51%
COc1ccc(CNC(=O)c2cc3c(C)c(C)nnc3s2)cc1F	66%
CCc1c(C(=O)NCc2ccc(OC)c(F)c2)sc2nnc(C)c(C)c12	73%
COc1ccc(CNC(=O)c2sc3nnc(C)c(C)c3c2C2CC2)cc1F	35%
Cc1nnc2sc3c(NCc4ccco4)nn(C)c3c2c1C	91%
CSc1ccc(CNC(=O)c2sc3nc(C)cc(C)c3c2C)cc1	45%
Cc1cc(C)c2c(n1)sc1c(NCC3CCCC3)n[nH]c12	65%
COc1ccc(CNC(=O)c2cc3c(C)cc(C)nc3s2)cc1	53%
Cc1cc(C)c2c(C)c(C(=O)NCc3ccc4c(c3)CCO4)sc2n1	50%
Cc1nnc2sc3c(NCC4CC4)nn(C)c3c2c1C	84%
Cc1nnc2sc3c(NCC4CCCO4)nn(C)c3c2c1C (stereo unspecified)	102%
Cc1cc(C)c2c(C)c(C(=O)NCc3ccc(OC(F)(F)F)cc3)sc2n1	29%
Cc1nc2sc3c(NCc4ccc(F)cc4)nn(C)c3c2c(C)c1Cl	56%
Cc1cc(C)c2c(C)c(C(=O)NCc3ccc(S(C)(=O)=O)cc3)sc2n1	58%
Cc1cc(C)c2c(n1)sc1c(NCc3ccccc3)n[nH]c12	66%
COc1ccc(CNC(=O)c2sc3nnc(C)c(C)c3c2N)cc1F	75%

SMILES	Emax
Cc1nc2sc3c(NCc4ccccc4)nn(C)c3c2c(C)c1Cl	39%
Cc1cc(C)c2c(n1)sc1c(NCc3ccc(F)cc3)n[nH]c12	62%
Cc1nnc2sc(C(=O)NC3COC3)c(C3CC3)c2c1C	38%
Cc1cc(C)c2c(C)c(C(=O)NCc3ccc4c(c3)OCCO4)sc2n1	56%
COc1ccc(CNC(=O)c2sc3nnc(C)c(C)c3c2C)cc1F	56%
COc1ccc(CNC(=O)c2sc3nc(C)cc(C)c3c2C)cc1	49%
COc1ccc(CNc2n[nH]c3c2sc2nc(C)cc(C)c23)cc1	67%
Cc1nc2sc3c(NCC4CC4)nn(C)c3c2c(C)c1Cl	67%
Cc1nc2sc3c(NCc4ccco4)nn(C)c3c2c(C)c1Cl	59%
COc1ccc(CNc2nn(C)c3c2sc2nnc(C)c(C)c23)cc1	79%
Cc1cc(C)c2c(n1)sc1c(NCc3ccco3)n[nH]c12	76%
CCc1c(C(=O)NCc2ccc(S(C)(=O)=O)cc2)sc2nc(C)cc(C)c12	57%
Cc1nnc2sc3c(NCc4ccc(S(C)(=O)=O)c(F)c4)nn(C)c3c2c1C	58%
Cc1cc(C)c2c(n1)sc1c(NCC3CC3)n[nH]c12	67%
Cc1nnc2sc3c(NCc4ccc5c(c4)OCCO5)nn(C)c3c2c1C	91%

target: P-gp (ABCB1) (Homo sapiens, UniProt P08183); test: Substrate activity at human P-gp assessed as efflux ratio; assay type: ADME; details: not told
Sequence (P08183 whole entry): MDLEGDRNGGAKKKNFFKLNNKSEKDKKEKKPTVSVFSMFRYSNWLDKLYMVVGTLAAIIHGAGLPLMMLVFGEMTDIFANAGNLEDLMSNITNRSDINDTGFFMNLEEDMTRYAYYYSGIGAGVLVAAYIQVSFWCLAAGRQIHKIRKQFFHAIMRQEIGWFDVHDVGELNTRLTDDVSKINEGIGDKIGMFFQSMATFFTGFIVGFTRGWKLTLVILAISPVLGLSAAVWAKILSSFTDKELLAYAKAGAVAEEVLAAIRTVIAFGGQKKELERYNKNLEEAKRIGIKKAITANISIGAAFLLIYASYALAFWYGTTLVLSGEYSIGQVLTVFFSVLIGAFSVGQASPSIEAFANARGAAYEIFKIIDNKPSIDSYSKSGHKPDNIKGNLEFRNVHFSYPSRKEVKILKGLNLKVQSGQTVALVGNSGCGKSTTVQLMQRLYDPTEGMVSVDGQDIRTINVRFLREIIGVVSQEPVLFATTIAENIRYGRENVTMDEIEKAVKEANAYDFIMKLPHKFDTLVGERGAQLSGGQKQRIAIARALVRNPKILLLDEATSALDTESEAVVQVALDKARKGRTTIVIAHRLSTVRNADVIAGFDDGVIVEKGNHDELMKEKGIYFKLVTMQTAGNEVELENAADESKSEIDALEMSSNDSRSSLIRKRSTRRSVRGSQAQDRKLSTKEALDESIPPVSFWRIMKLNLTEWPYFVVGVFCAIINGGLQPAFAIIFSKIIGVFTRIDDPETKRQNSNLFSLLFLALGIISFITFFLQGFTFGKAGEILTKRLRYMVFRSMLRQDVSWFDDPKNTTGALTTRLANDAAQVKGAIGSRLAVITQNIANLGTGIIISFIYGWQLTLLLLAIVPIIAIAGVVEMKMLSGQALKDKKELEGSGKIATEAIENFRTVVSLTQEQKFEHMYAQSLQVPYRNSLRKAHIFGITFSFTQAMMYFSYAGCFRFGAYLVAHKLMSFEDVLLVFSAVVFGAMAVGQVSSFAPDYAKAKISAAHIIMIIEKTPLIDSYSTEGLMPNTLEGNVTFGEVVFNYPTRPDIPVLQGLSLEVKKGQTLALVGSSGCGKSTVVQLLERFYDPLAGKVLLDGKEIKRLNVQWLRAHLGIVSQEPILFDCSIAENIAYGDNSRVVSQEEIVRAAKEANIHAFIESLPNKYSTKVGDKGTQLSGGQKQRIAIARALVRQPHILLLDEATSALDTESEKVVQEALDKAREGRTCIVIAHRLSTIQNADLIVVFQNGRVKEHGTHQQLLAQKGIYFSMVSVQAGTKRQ

SMILES	efflux ratio
Cc1nnc2sc3c(NCc4ccc(S(C)(=O)=O)c(F)c4)nn(C)c3c2c1C	> 10

system: not listed separately; test: Brain to plasma partition coefficient, Kp of the compound in rat; assay type: ADME, cell-free; details: not given

SMILES	Kp
COc1ccc(CNc2nn(C)c3c2sc2nnc(C)c(C)c23)cc1	0.25

system: not listed separately; test: Fraction unbound in rat plasma; assay type: ADME, cell-free; details: not given

SMILES	fraction unbound	Fu
COc1ccc(CNC(=O)c2cc3c(C)c(C)nnc3s2)cc1F	< 0.005	
CCc1c(C(=O)NCc2ccc(OC)c(F)c2)sc2nnc(C)c(C)c12	< 0.005	
COc1ccc(CNC(=O)c2sc3nnc(C)c(C)c3c2C2CC2)cc1F	< 0.005	
CSc1ccc(CNC(=O)c2sc3nc(C)cc(C)c3c2C)cc1	< 0.005	
COc1ccc(CNC(=O)c2cc3c(C)cc(C)nc3s2)cc1	< 0.005	
Cc1cc(C)c2c(C)c(C(=O)NCc3ccc4c(c3)CCO4)sc2n1	< 0.005	
Cc1cc(C)c2c(C)c(C(=O)NCc3ccc(OC(F)(F)F)cc3)sc2n1	< 0.005	
Cc1cc(C)c2c(C)c(C(=O)NCc3ccc(S(C)(=O)=O)cc3)sc2n1	< 0.005	
Cc1nnc2sc(C(=O)NC3COC3)c(C3CC3)c2c1C	< 0.005	
Cc1cc(C)c2c(C)c(C(=O)NCc3ccc4c(c3)OCCO4)sc2n1	< 0.005	
COc1ccc(CNC(=O)c2sc3nnc(C)c(C)c3c2C)cc1F	< 0.005	
COc1ccc(CNC(=O)c2sc3nc(C)cc(C)c3c2C)cc1	< 0.005	
COc1ccc(CNc2n[nH]c3c2sc2nc(C)cc(C)c23)cc1		< 0.002
Cc1nc2sc3c(NCC4CC4)nn(C)c3c2c(C)c1Cl		< 0.001
Cc1nc2sc3c(NCc4ccco4)nn(C)c3c2c(C)c1Cl		< 0.001
COc1ccc(CNc2nn(C)c3c2sc2nnc(C)c(C)c23)cc1		0.02
CCc1c(C(=O)NCc2ccc(S(C)(=O)=O)cc2)sc2nc(C)cc(C)c12	< 0.005	
Cc1nnc2sc3c(NCc4ccc(S(C)(=O)=O)c(F)c4)nn(C)c3c2c1C		0.05

target: T2, Muscarinic acetylcholine receptor M4 (Homo sapiens, UniProt P08173); test: Positive allosteric modulation of Gqi5-fused human M4 AChR assessed as increase in acetylcholine-induced calcium mobilization; assay type: functional; details: not given
T2 sequence (P08173 whole entry): T1 sequence (whole entry)

SMILES	EC50
COc1ccc(CNc2nn(C)c3c2sc2nc(C)c(Cl)c(C)c23)cc1	> 10000 nM
COc1ccc(CNC(=O)c2cc3c(C)c(C)nnc3s2)cc1F	1500 nM
CCc1c(C(=O)NCc2ccc(OC)c(F)c2)sc2nnc(C)c(C)c12	2200 nM
COc1ccc(CNC(=O)c2sc3nnc(C)c(C)c3c2C2CC2)cc1F	5600 nM
Cc1nnc2sc3c(NCc4ccco4)nn(C)c3c2c1C	690 nM
CSc1ccc(CNC(=O)c2sc3nc(C)cc(C)c3c2C)cc1	1500 nM
Cc1cc(C)c2c(n1)sc1c(NCC3CCCC3)n[nH]c12	3800 nM
COc1ccc(CNC(=O)c2cc3c(C)cc(C)nc3s2)cc1	5100 nM
Cc1cc(C)c2c(C)c(C(=O)NCc3ccc4c(c3)CCO4)sc2n1	5900 nM
Cc1nnc2sc3c(NCC4CC4)nn(C)c3c2c1C	620 nM
Cc1nnc2sc3c(NCC4CCCO4)nn(C)c3c2c1C (stereo unspecified)	180 nM
Cc1cc(C)c2c(C)c(C(=O)NCc3ccc(OC(F)(F)F)cc3)sc2n1	> 10000 nM
Cc1nc2sc3c(NCc4ccc(F)cc4)nn(C)c3c2c(C)c1Cl	> 10000 nM
Cc1cc(C)c2c(C)c(C(=O)NCc3ccc(S(C)(=O)=O)cc3)sc2n1	6400 nM
Cc1cc(C)c2c(n1)sc1c(NCc3ccccc3)n[nH]c12	1000 nM
Cc1nc2sc3c(NCc4ccccc4)nn(C)c3c2c(C)c1Cl	> 10000 nM
Cc1cc(C)c2c(n1)sc1c(NCc3ccc(F)cc3)n[nH]c12	1100 nM
Cc1nnc2sc(C(=O)NC3COC3)c(C3CC3)c2c1C	> 10000 nM
Cc1cc(C)c2c(C)c(C(=O)NCc3ccc4c(c3)OCCO4)sc2n1	2100 nM
COc1ccc(CNC(=O)c2sc3nnc(C)c(C)c3c2C)cc1F	2100 nM
COc1ccc(CNC(=O)c2sc3nc(C)cc(C)c3c2C)cc1	2700 nM
COc1ccc(CNc2n[nH]c3c2sc2nc(C)cc(C)c23)cc1	2200 nM
Cc1nc2sc3c(NCC4CC4)nn(C)c3c2c(C)c1Cl	230 nM
Cc1nc2sc3c(NCc4ccco4)nn(C)c3c2c(C)c1Cl	120 nM
COc1ccc(CNc2nn(C)c3c2sc2nnc(C)c(C)c23)cc1	40 nM
Cc1cc(C)c2c(n1)sc1c(NCc3ccco3)n[nH]c12	1200 nM
CCc1c(C(=O)NCc2ccc(S(C)(=O)=O)cc2)sc2nc(C)cc(C)c12	2700 nM
Cc1nnc2sc3c(NCc4ccc(S(C)(=O)=O)c(F)c4)nn(C)c3c2c1C	160 nM
Cc1cc(C)c2c(n1)sc1c(NCC3CC3)n[nH]c12	2000 nM
Cc1nnc2sc3c(NCc4ccc5c(c4)OCCO5)nn(C)c3c2c1C	60 nM

target: T3, Cytochrome P450 1A2 (Homo sapiens, UniProt P05177); test: Inhibition of CYP1A2 (unknown origin); assay type: ADME; details: not given
T3 sequence (P05177 whole entry): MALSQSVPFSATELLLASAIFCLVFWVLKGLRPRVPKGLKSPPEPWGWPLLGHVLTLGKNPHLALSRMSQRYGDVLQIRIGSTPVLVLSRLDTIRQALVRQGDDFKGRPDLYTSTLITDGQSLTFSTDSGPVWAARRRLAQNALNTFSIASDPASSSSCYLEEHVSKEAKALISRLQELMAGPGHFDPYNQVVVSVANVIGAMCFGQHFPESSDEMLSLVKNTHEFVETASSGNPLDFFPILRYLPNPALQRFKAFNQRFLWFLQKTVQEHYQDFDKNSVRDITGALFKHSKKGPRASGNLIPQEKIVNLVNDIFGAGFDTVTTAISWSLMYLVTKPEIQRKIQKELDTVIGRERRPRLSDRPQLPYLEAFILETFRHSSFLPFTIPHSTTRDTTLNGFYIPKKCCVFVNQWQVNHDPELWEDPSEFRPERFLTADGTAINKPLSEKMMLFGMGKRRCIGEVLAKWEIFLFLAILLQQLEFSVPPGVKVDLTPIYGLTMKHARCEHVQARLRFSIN

SMILES	IC50
Cc1nc2sc3c(NCC4CC4)nn(C)c3c2c(C)c1Cl	< 100 nM
Cc1nc2sc3c(NCc4ccco4)nn(C)c3c2c(C)c1Cl	< 100 nM

target: Cytochrome P450 2C9 (Homo sapiens, UniProt P11712); test: Inhibition of CYP2C9 (unknown origin); assay type: ADME; details: not given
Sequence (P11712 whole entry): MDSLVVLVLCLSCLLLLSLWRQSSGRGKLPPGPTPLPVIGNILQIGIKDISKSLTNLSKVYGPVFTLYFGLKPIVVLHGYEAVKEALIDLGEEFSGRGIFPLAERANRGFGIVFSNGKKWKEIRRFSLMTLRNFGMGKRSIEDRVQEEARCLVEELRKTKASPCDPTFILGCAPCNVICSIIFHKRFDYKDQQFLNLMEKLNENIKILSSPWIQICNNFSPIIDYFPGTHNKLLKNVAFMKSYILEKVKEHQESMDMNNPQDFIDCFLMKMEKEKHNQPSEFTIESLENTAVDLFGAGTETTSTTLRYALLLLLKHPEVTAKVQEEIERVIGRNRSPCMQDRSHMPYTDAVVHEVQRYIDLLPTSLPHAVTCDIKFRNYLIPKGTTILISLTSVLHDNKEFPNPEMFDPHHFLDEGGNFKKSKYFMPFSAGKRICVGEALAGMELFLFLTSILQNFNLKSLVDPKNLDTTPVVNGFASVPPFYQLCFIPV

SMILES	IC50
Cc1nc2sc3c(NCC4CC4)nn(C)c3c2c(C)c1Cl	1000 nM
Cc1nc2sc3c(NCc4ccco4)nn(C)c3c2c(C)c1Cl	1000 nM
